Test results reported in US20100260818A1, “STABLE MEDICATED CHEWING GUM COMPRISING CYCLODEXTRIN INCLUSION COMPLEX” (FERTIN PHARMA A/S, priority 2007, published 2010).
Several values for one entry are separate records, joined by “and”; a condition that tells them apart may be missing. Identical values can stand only once. Each block holds one compound with its values, some of them ahead of it.

Tests used:
[1] = β-cyclodextrin content of filtrates of cetirizine.2HCL/β-cyclodextrin reaction mixture (HPLC, ELSD); assay type: physicochemical
[2] = Suspension homogeneity (visual) and chemical stability of cetirizine and β-cyclodextrin suspension with hydroxy acids, salts, NaOH; conditions: for Suspension homogeneity compared to control: visual
Protocol: The effect of different hydroxy acids, hydroxy acid salts and sodium hydroxide on the suspension homogeneity and also on the chemical stability of cetirizine in the suspensions was studied.
The cetirizine and β-cyclodextrin suspensions were prepared by stirring aqueous cetirizine solution with cyclodextrin and with the additives.

[3] = Powder sample storage stability, impurities by HPLC (Example 9); assay type: physicochemical; conditions: 34 days, 40 degrees C., 75% relative humidity; cyclodextrin and cetirizine uncomplexed in same formulation
Protocol: The four samples were stored in capped 50 mL Polyethylene Duma™ containers (Superfos Pharma Pack, Denmark) at 40 degrees C. and 75% relative humidity for 34 days, and were subsequently analysed by HPLC.

[4] = molar ratio CTZ:Additive not calculated

Structure (SMILES): O=C(O)CC(O)(CC(=O)O)C(=O)O [Citric acid]
BCD content in the filtrate ([1]; molar ratio CTZ:Additive 1:1): 154 mg/mL | Suspension homogeneity compared to control ([2]; molar ratio CTZ:Additive 1:1): no significant change

Structure (SMILES): O=C([O-])C(O)C(O)C(=O)[O-].[K+].[Na+] (stereo not drawn) [K—Na-tartarate, Potassium-sodium-tartarate]
BCD content in the filtrate ([1]; molar ratio CTZ:Additive 1:5): 120 mg/mL | Suspension homogeneity compared to control ([2]; molar ratio CTZ:Additive 1:5): better

Structure (SMILES): O=C([O-])CC(O)(CC(=O)[O-])C(=O)[O-].[Na+].[Na+].[Na+] [Na-citrate, Tri-sodium citrate]
BCD content in the filtrate ([1]; molar ratio CTZ:Additive 1:4): 135 mg/mL | Chemical degradations affecting β-cyclodextrin and cetirizine component of the binary formulation ([2]; effective amount of additive 3-6% by weight): effectively suppressed | Suspension homogeneity compared to control ([2]; molar ratio CTZ:Additive 1:1): better | Suspension homogeneity compared to control ([2]; molar ratio CTZ:Additive 1:2): better | Suspension homogeneity compared to control ([2]; molar ratio CTZ:Additive 1:3): better | Suspension homogeneity compared to control ([2]; molar ratio CTZ:Additive 1:4): better

BCD content in the filtrate [1, 4]: 115 mg/mL and 125 mg/mL | Suspension homogeneity compared to control [2, 4]: no significant change
Structure (SMILES): [Na+].[OH-] [NaOH, Sodium hydroxide]

Structure (SMILES): O=C(O)C(O)C(O)C(=O)O (stereo not drawn) [Tartaric acid]
BCD content in the filtrate ([1]; molar ratio CTZ:Additive 1:2): 130 mg/mL | Suspension homogeneity compared to control ([2]; molar ratio CTZ:Additive 1:2): better

Effect on the stability of cetirizine [3]: does not have any significant effect
Structure (SMILES): OC[C@H]1O[C@@H]2O[C@H]3[C@H](O)[C@@H](O)[C@@H](O[C@H]4[C@H](O)[C@@H](O)[C@@H](O[C@H]5[C@H](O)[C@@H](O)[C@@H](O[C@H]6[C@H](O)[C@@H](O)[C@@H](O[C@H]7[C@H](O)[C@@H](O)[C@@H](O[C@H]8[C@H](O)[C@@H](O)[C@@H](O[C@H]1[C@H](O)[C@H]2O)O[C@@H]8CO)O[C@@H]7CO)O[C@@H]6CO)O[C@@H]5CO)O[C@@H]4CO)O[C@@H]3CO [un-complexed cyclodextrin, Beta-cyclodextrin]
